The results in this text go back to PubChem BioAssay (NCI).

Values joined by “and” are separate entries in the source; they are usually repeats but may differ in a detail not shown here. Identical values can stand only once.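 The compound was tested at five concentrations on cells cultured in 96-well plates, with a 48-hour exposure period. Abbreviation: GI50, concentration required for 50% inhibition of growth. TGI: concentration producing complete growth inhibition.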

Holding throughout (assay): NCI anticancer screen, dose series, 48 h
Assay [1] relates to HCT-116 colon.
For assay [2], the system named is UACC-257 melanoma.
In assay [3] the test system is U251 CNS.
Assay [4] deals with SK-MEL-5 melanoma.
For assay [5], the system named is HOP-62 NSCLC.
Assay [6] deals with PC-3 prostate.
For assay [7], the system named is IGROV1 ovarian.
Assay [8] has as its system HS 578T breast.
Assay [9] relates to HL-60(TB) leukemia.
Assay [10] concerns K-562 leukemia.

Regarding `COc1cc(Cl)cc(-c2nn(C(=O)NCCN3CCN(C)CC3)cc2-c2ccncc2)c1`, the GI50 in assay [1] was 14.8 µM; in [2], 20.5 µM; in assay [3] it was 15.1 µM; in assay [4], 3.76 µM; in [5], 5.87 µM; in [6], 19.5 µM. Besides, the GI50 is 17.8 µM in assay [7], 4.96 µM in [8], 25.6 µM in [9] and 28500 nM in assay [10]. The TGI in assay [1] was 31.3 µM; in [2] it was greater than 100 µM; in [3], greater than 100 µM; in [4] it was 16.7 µM; in assay [5], 44.5 µM; in assay [6], greater than 100 µM. Further, the TGI is greater than 100 µM in assay [7], 32.9 µM in assay [8], 75.8 µM in assay [9] and greater than 100 µM in [10].
In the case of `CCCCCNC(=O)[C@@H]1CCCN2C(=O)CC[C@H](NC(=O)[C@H](Cc3ccc(OP(=O)(O)O)cc3)NC(C)=O)C(=O)N12`, the GI50 in assay [1], in [2], in assay [3], in [4], in [5] and in assay [6] was greater than 25 µM in each case. For the same compound, the GI50 in assay [7] is greater than 25 µM; in [8] it was greater than 25 µM; in assay [9] it was greater than 25 µM; in [10] it was greater than 25000 nM. Also, the TGI in assay [1], in assay [2], in assay [3], in assay [4], in assay [5] and in assay [6] was greater than 25 µM in each case. Besides, the TGI in assay [7], in [8], in [9] and in [10] was greater than 25 µM in each case.
Take `CCN1C(=O)N(CC)C2C1NN=c1s/c(=C3\C(=O)N(CC(C)C)c4ccccc43)c(=O)n12` (configuration not stated): the GI50 was 0.441 µM in assay [1]; 0.548 µM in [3]; 0.436 µM in assay [4]; 0.797 µM in assay [5]; 0.514 µM in [6]; 0.808 µM in [7]. Also, the GI50 in assay [8] was 0.665 µM; in assay [9], 0.34 µM; in assay [10] it was 429 nM. Further, the TGI in [1] was greater than 100 µM; in assay [2], greater than 100 µM; in assay [3] it was 27.4 µM; in assay [4], greater than 100 µM; in [5], 34.8 µM; in [6], greater than 100 µM. In addition, the TGI in [7] is greater than 55.7 µM; in assay [8] it was 23.9 µM; in assay [9], 1.64 µM; in assay [10], greater than 100 µM.
As to `C[C@@H]1O[C@@H](O[C@@H]2[C@@H](O)[C@H](OCCc3ccc(O)c(O)c3)O[C@H](COC(=O)/C=C/c3ccc(O)c(O)c3)[C@H]2O)[C@H](O)[C@H](O)[C@H]1O`, the GI50 was 36.1 µM in [1]; 62.9 µM in assay [2]; 49.2 µM in assay [3]; greater than 100 µM in assay [4]; greater than 100 µM in [5]; 0.524 µM in assay [6]. In addition, the GI50 in assay [7] was greater than 100 µM; in assay [8] it was greater than 100 µM; in [9], 54.4 µM; in [10] it was 36700 nM. Also, the TGI in assay [1] was 75.3 µM; in assay [2], greater than 100 µM; in [3], greater than 100 µM; in assay [4] it was greater than 100 µM; in assay [5], greater than 100 µM; in [6], greater than 100 µM. Moreover, the TGI in assay [7], in assay [8], in [9] and in assay [10] was greater than 100 µM throughout.
`O=C(c1cc(F)c(Cl)cc1Cl)N1N=C(c2ccccc2)CC1(O)c1ccccc1` (configuration not stated): the GI50 in assay [1] was 10.1 µM; in [2], 24.7 µM; in assay [3] it was 18.4 µM; in [4], 14 µM; in [5] it was 13.7 µM; in [6], 12.9 µM. Besides, the GI50 in [7] was 15.2 µM; in [8], 23.8 µM; in [9], 17.4 µM; in assay [10] it was 12200 nM. Besides, the TGI in assay [1] came to 21.7 µM; in assay [2], 51.6 µM; in [3], 38.5 µM; in [4], 26.9 µM; in assay [5], 27.6 µM; in assay [6], 40.5 µM. The TGI was 36.7 µM in [7], 58.8 µM in [8], 41.2 µM in assay [9] and 27.2 µM in assay [10].
For `CCCN=C1Nc2ccccc2[C@@H]2N(C)c3ccccc3C(C)C[C@]12C` (some centres not stated), the TGI in assay [1] is 30.4 µM; in [2], 25.6 µM; in [4], 29.2 µM; in assay [5], 32.1 µM; in assay [6], 40.8 µM; in assay [7] it was 43.5 µM. The TGI in [8] is 41.9 µM; in assay [9], 56.1 µM; in assay [10] it was greater than 100 µM.
As to `COc1ccc(/C=C\c2cc(OC)c(OC)c(OC)c2)cc1OC(=O)C(N)CCC(=O)O` (configuration not stated), the GI50 in assay [1] was 0.000425 µM; in [2], 0.000603 µM; in assay [3] it was 0.000543 µM and 0.000132 µM; in [6], 0.00125 µM and 0.000357 µM; in assay [7] it was 0.00415 µM and 0.000539 µM and 0.000824 µM; in [8], 0.000788 µM and 0.00046 µM. For the same compound, the GI50 in [9] is 0.00017 µM; in [10], 0.311 nM and 0.0702 nM. Besides, the TGI was 22.8 µM in assay [2]; greater than 100 µM in assay [5]; greater than 100 µM in assay [7]; 0.000422 µM and 0.00275 µM in assay [9].
As for `CCN(CC)CCOc1ccc(Nc2ncc3cc(-c4ccc(O)cc4)c(=O)n(C)c3n2)cc1`, the GI50 was 7.57 µM in [2]; 1.4 µM in [3]; 14.8 µM in assay [4]; 2.78 µM in assay [5]; 0.831 µM in assay [6]; 0.0803 µM in assay [7]. Also, the results for the GI50 in [8], in assay [9] and in assay [10] were 0.274 µM, 14.6 µM and 39 nM, respectively. The TGI in assay [2] stood at 31.6 µM; in [3], 2.81 µM; in assay [4] it was 31 µM; in [5], 23.7 µM; in assay [6], 24.6 µM; in assay [7], 15.9 µM. The TGI in assay [8] was determined as 19.8 µM; in assay [9], 40.3 µM.
